In patent publication US5952382A, “Adamantyl-substituted retinoids and pharmaceutical/cosmetic compositions comprised thereof” (Centre International De Recherches Dermatologiques Galderma, priority 1995, dated 1999):
Like-named read-outs stand apart in the source and are kept apart here.

How the values were obtained:
[1] = system: embryonic teratocarcinoma F9 cells; test: Test of differentiation of embryonic teratocarcinoma F9 cells, antagonism of an agonist retinoid (secretion of the activator of plasminogen, morphology); type: cell-based, mice; settings: inhibition by 50% of effect of agonist compound A (10 nM) on secretion of the activator of plasminogen, 3 days incubation, read-out: Antagonist against compound A (10 nM) Test of differentiation of F9 cells IC50
[2] = system: embryonic teratocarcinoma F9 cells; settings: prior art; cited from earlier work

Compound: 4-[7-(1-adamantyl)-6-carbonylpentyloxy-2-naphthyl]benzoic acid [Example 20]
- IC50 [1]: 0.1 µM

Compound: O=C(O)c1ccc(-c2ccc3cc(OCc4ccccc4)c(C45CC6CC(CC(C6)C4)C5)cc3c2)cc1O [Example 1, 2-hydroxy-4-[7-(1-adamantyl)-6-benzyloxy-2-naphthyl]benzoic acid]
- IC50 ([1]; Mus musculus, F9, 72 h): 0.005 µM

Compound: COCCOCOc1cc2ccc(-c3ccc(C(=O)O)cc3)cc2cc1C12CC3CC(CC(C3)C1)C2 [Example 3, 4-[7-(1-adamantyl)-6-methoxyethoxymethoxy-2-naphthyl]benzoic acid]
- IC50 ([1]; Mus musculus, F9, 72 h): 0.002 µM

Compound: O=C(O)c1ccc(-c2ccc3cc(OCc4ccccc4)c(C45CC6CC(CC(C6)C4)C5)cc3c2)cc1 [Example 5, 4-[7-(1-adamantyl)-6-benzyloxy-2-naphthyl]benzoic acid]
- IC50 ([1]; Mus musculus, F9, 72 h): 0.18 µM

Compound: O=C(O)c1ccc(-c2ccc3cc(C(=O)OCc4ccccc4)c(C45CC6CC(CC(C6)C4)C5)cc3c2)cc1 [Example 6, 4-[7-(1-adamantyl)-6-benzyloxycarbonyl-2-naphthyl]benzoic acid]
- IC50 ([1]; Mus musculus, F9, 72 h): 0.5 µM

Compound: O=C(O)c1ccc(-c2ccc3cc(OCCCCCCCCO)c(C45CC6CC(CC(C6)C4)C5)cc3c2)cc1 [Example 14, 4-[7-(1-adamantyl)-6-hydroxyoctyloxy-2-naphthyl]benzoic acid]
- IC50 ([1]; Mus musculus, F9, 72 h): 0.25 µM

Compound: COCCCCCCOc1cc2ccc(-c3ccc(C(=O)O)cc3)cc2cc1C12CC3CC(CC(C3)C1)C2 [Example 39, 4-[7-(1-adamantyl)-6-methoxyhexyloxy-2-naphthyl]benzoic acid]
- IC50 ([1]; Mus musculus, F9, 72 h): 0.45 µM

Compound: CC1=C(/C=C/C(C)=C/C=C/C(C)=C/C(=O)O)C(C)(C)CCC1 [retinoic acid]
- induction of differentiation of embryonic teratocarcinoma cells (F9) in mice [2]: capable of inducing differentiation
